Reference: patent US20110086826A1, “LIPOSOMAL CAMPTOTHECINS AND USES THEREOF” (TEKMIRA PHARMACEUTICALS CORPORATION, priority 2000, published 2011)
Read-outs that look alike come from different tables or passages of the source. Marks after values point to notes of the source that are not given here.

Columns and labels:
[1] = Pharmacokinetic and in vivo leakage studies; set-up: species or system ICR mice; details: plasma, i.v.
Description: 5. Pharmacokinetic and in vivo leakage studies. […] Two different drug-to-lipid ratios, i.e., 0.10 (w/w) and 0.02 (w/w), were used to examine the influence of drug-to-lipid ratio and lipid dose on drug leakage and PK behavior. Encapsulated topotecan was administered at 1 mg/kg (10 or 50 mg/kg lipid) and 5 mg/kg topotecan (50 mg/kg lipid). […] Total topotecan in blood was determined by a fluorescence assay preceded by precipitation of plasma proteins. Topotecan was quantified by spectrofluorimetry at an excitation (2.5 nm slit width) and emission wavelength (2.5 nm slit width) of 380 and 518 nm, respectively. Lipid levels in plasma were determined by liquid scintillation counting of the [^3H]-CHE label.
All parameters were derived from one or two-compartment models using WINNONLIN PK modeling software.

[2] = Myelosuppression and neutropenia studies (blood CBC and differential); type: in vivo, ICR mice; details: 10 mg/kg i.v.
Description: (§2) Myelosuppression and neutropenia studies. […] Empty vesicles were administered as a control. CBC and differential analysis was performed at Central Labs for Veterinarians (Langley, BC) to quantify cellular levels, ratios and morphology.

[3] = Serum chemistry panel; type: in vivo, ICR mice; details: 10 mg/kg i.v., day 3 post-injection
Description: as §2

[4] = tested on: L1210 murine leukemia; assay: Intravenous L1210 murine leukemia model; details: for % ILS (increase in lifespan) / DRD (drug related deaths) / MWL (maximum mean weight loss) / TF (tumor free animals at end of study): L1210 i.v.
Description: FIG. 3. […] L1210 cells (10^5 cells in 200 μl) were injected i.v. into the tail vein of BDF-1 mice on day 0. […] Each group consisted of 8 animals. Data is from NCTEF-005.
(§1) In the above formula, MTD is the maximum tolerated dose, defined as that dose that causes a mean weight loss of 20% in a group of animals; and MED is the minimal effective dose, defined as the dose that produces an optimal % T/C value of ≦40 in the solid tumor models or an % ILS of 50±10% in the survival models.

[5] = tested on: CT-26 murine colon metastases; assay: Intrasplenic CT-26 murine colon metastases model; details: for % ILS (increase in lifespan) / DRD (drug related deaths) / MWL (maximum mean weight loss) / TF (tumor free animals at end of study): CT-26 i.s.
Description: FIG. 4. […] CT-26 cells (10^4 cells in 50 μl) were injected into the spleen of Balb/c mice on day 0. […] Each group consisted of 8 animals. Data is from NCTEF-002.
as §1

[6] = tested on: MX-1 human breast xenografts; assay: Subcutaneous MX-1 human breast xenografts
Text: FIG. 5. […] Data is from NCTEF-004.
FIG. 7. […] Data is from NCTEF-006.
FIG. 8. […] Data is from NCTEF-009.

[7] = Topotecan lactone species in plasma; type: in vivo, mice; details: after only 5 minutes
[8] = humans, daily for 5 consecutive days (d×5); cited from earlier work
[9] = cited from earlier work
[10] = MTD of free topotecan in humans; details: 1.5 vs 14 mg/M^2
[11] = MTD studies (weight loss over time); details: if the drug was infused over 5-10 minutes
Description: MTD studies. MTD studies were performed in the host mouse strain corresponding to each tumor model. Single dose and multidose MID were determined by monitoring weight loss over time.

[12] = tested on: LX-1 human SCLC xenografts; assay: Subcutaneous LX-1 human SCLC xenografts; details: for % ILS (increase in lifespan) / DRD (drug related deaths) / LCK (log cell kill, gross) / MWL (maximum mean weight loss): LX-1 s.c.
Description: Topotecan was encapsulated in SM:CH (55:45) vesicles at a drug-to-lipid ratio of 0.10 (w/w) using the Mg-A23187 method as described in Experimental. All dilutions were made in sterile 0.9% saline immediately prior to injection. Drug administration was made via the lateral tail vein at 10 days post-tumor cell implantation when the tumors were 100-300 mm^3. Data points represent mean±SEM (n=6).
Topotecan was encapsulated in SM:CH (55:45) vesicles at a drug-to-lipid ratio of 0.10 (w/w) using the Mg-A23187 method as described in Experimental. All dilutions were made in sterile 0.9% saline immediately prior to injection. Drug administration was made via the lateral tail vein on day 14, 21 and 28 post-tumor cell implantation. Data points represent mean±SEM (n=6).
Tumor Models. […] Human MX-1 and LX-1 cell lines were obtained from the DCTD Tumor Repository in Frederick, Md. These cell lines were received as tumor fragments and were propagated in NCr nude mice by serial transplantation of 3×3 mm fragments. Experiments were not initiated until the cell lines had been through 3 passages in nude mice and the tumor lines were restarted when the passage number reached 10.
Efficacy Studies. […] For the MX-1 and LX-1 tumor models, tumor volume was determined by repeated perpendicular measurements of tumor dimensions and using the formula:

[13] = day 3 post-injection (first line of treatment)
[14] = day 21 post-injection (second line of treatment)
[15] = L1210, single i.v. dose, highest dose of free topotecan
[16] = MX-1 s.c., q3dx4, 1.25 mg/kg/dose i.v.
[17] = MX-1 s.c., q3dx4, 10 mg/kg/dose i.v.
[18] = MX-1 s.c., q7dx3, 5 mg/kg/dose i.v.
[19] = MX-1 s.c., q7dx3, 10 mg/kg/dose i.v.
[20] = MX-1 s.c., single dose 5, 10 and 40 mg/kg
[21] = MX-1 s.c., single i.v. dose 5 mg/kg
[22] = MX-1 s.c., single i.v. dose 10 mg/kg
[23] = MX-1 s.c., single i.v. dose 40 mg/kg
[24] = q7dx3, NCTEF-007, 10 mg/kg/dose i.v.
[25] = q7dx3, NCTEF-007, 30 mg/kg/dose i.v.
[26] = q7dx3, NCTEF-011, 10 mg/kg/dose i.v.
[27] = q7dx3, NCTEF-011, 30 mg/kg/dose i.v.

Structure (SMILES): CC[C@@]1(O)C(=O)OCc2c1cc1n(c2=O)Cc2cc3c(CN(C)C)c(O)ccc3nc2-1 [Free, 9-dimethylaminomethyl-10-hydroxy-camptothecin]
- α1/2 ([1]; 1 mg/kg): 0.14 h
- β1/2 ([1]; 1 mg/kg): 11.8 h
- α1/2 ([1]; 5 mg/kg): 0.26 h
- β1/2 ([1]; 5 mg/kg): 11.4 h
- Baso ([2]; day 3 post-injection): 0.057 ± 0.040 ×10^9/L
- Eosino ([2]; day 3 post-injection): 0.031 ± 0.021 ×10^9/L
- Lympho ([2]; day 3 post-injection): 5.90 ± 1.70 ×10^9/L
- Mono ([2]; day 3 post-injection): 0.177 ± 0.072 ×10^9/L
- Neutro ([2]; day 3 post-injection): 0.520 ± 0.200 ×10^9/L
- WBC ([2]; day 3 post-injection): 6.70 ± 1.95 ×10^9/L
- Hb [2, 13]: 136 ± 05 g/L
- Hc [2, 13]: 0.444 ± 0.012 L/L
- PLT [2, 13]: 879 ± 145 ×10^9/L
- RBC [2, 13]: 8.47 ± 0.39 ×10^12/L
- Baso ([2]; day 21 post-injection): 0.088 ± 0.071 ×10^9/L
- Eosino ([2]; day 21 post-injection): 0.034 ± .016 ×10^9/L
- Lympho ([2]; day 21 post-injection): 4.33 ± 0.93 ×10^9/L
- Mono ([2]; day 21 post-injection): 0.247 ± 0.180 ×10^9/L
- Neutro ([2]; day 21 post-injection): 0.480 ± 0.122 ×10^9/L
- WBC ([2]; day 21 post-injection): 5.16 ± 1.18 ×10^9/L
- Hb [2, 14]: 154 ± 04 g/L
- Hc [2, 14]: 0.493 ± 0.014 L/L
- PLT [2, 14]: 907 ± 059 ×10^9/L
- RBC [2, 14]: 9.81 ± 0.37 ×10^12/L
- ALT [3]: 13 ± 23 IU/L
- Albumin [3]: 32.8 ± 1.3 g/L
- BUN [3]: 9.4 ± 3.2 mmol/L
- Bilirubin [3]: 3.8 ± 0.8 µmol/L
- CPK [3]: 56 ± 38 IU/L
- Creatinine [3]: 82 ± 18 µmol/L
- Globulin [3]: 15.2 ± 1.1 g/L
- TP [3]: 48.0 ± 2.1 g/L
- long-term survivors (day 60) [4, 15]: one long-term survivor
- median survival [4, 15]: 13 days
- % ILS (increase in lifespan) ([4]; single i.v. dose 5 mg/kg): 11%
- DRD (drug related deaths) ([4]; single i.v. dose 5 mg/kg): 0/8
- MWL (maximum mean weight loss) ([4]; single i.v. dose 5 mg/kg): +
- TF (tumor free animals at end of study) ([4]; single i.v. dose 5 mg/kg): 0/8
- % ILS (increase in lifespan) ([4]; single i.v. dose 10 mg/kg): 22%
- DRD (drug related deaths) ([4]; single i.v. dose 10 mg/kg): 0/8
- MWL (maximum mean weight loss) ([4]; single i.v. dose 10 mg/kg): +
- TF (tumor free animals at end of study) ([4]; single i.v. dose 10 mg/kg): 0/8
- % ILS (increase in lifespan) ([4]; single i.v. dose 20 mg/kg): 33%
- DRD (drug related deaths) ([4]; single i.v. dose 20 mg/kg): 0/8
- MWL (maximum mean weight loss) ([4]; single i.v. dose 20 mg/kg): +
- TF (tumor free animals at end of study) ([4]; single i.v. dose 20 mg/kg): 0/8
- DRD (drug related deaths) ([4]; single i.v. dose 30 mg/kg): 0/8
- MWL (maximum mean weight loss) ([4]; single i.v. dose 30 mg/kg): +
- TF (tumor free animals at end of study) ([4]; single i.v. dose 30 mg/kg): 0/8
- DRD (drug related deaths) ([4]; single i.v. dose 40 mg/kg): 0/8
- MWL (maximum mean weight loss) ([4]; single i.v. dose 40 mg/kg): +
- TF (tumor free animals at end of study) ([4]; single i.v. dose 40 mg/kg): 0/8
- % ILS ([5]; CT-26, single dose, over the dose range 5-40 mg/kg): 23-60%
- % ILS (increase in lifespan) ([5]; single i.v. dose 5 mg/kg): 31%
- DRD (drug related deaths) ([5]; single i.v. dose 5 mg/kg): 0/8
- MWL (maximum mean weight loss) ([5]; single i.v. dose 5 mg/kg): +
- TF (tumor free animals at end of study) ([5]; single i.v. dose 5 mg/kg): 0/8
- % ILS (increase in lifespan) ([5]; single i.v. dose 10 mg/kg): 23%
- DRD (drug related deaths) ([5]; single i.v. dose 10 mg/kg): 0/8
- MWL (maximum mean weight loss) ([5]; single i.v. dose 10 mg/kg): +
- TF (tumor free animals at end of study) ([5]; single i.v. dose 10 mg/kg): 0/8
- DRD (drug related deaths) ([5]; single i.v. dose 40 mg/kg): 0/8
- MWL (maximum mean weight loss) ([5]; single i.v. dose 40 mg/kg): −0.4%
- TF (tumor free animals at end of study) ([5]; single i.v. dose 40 mg/kg): 1/8
- anti-tumor activity (in words) ([6]; MX-1, q7d×3, 5 or 10 mg/kg/dose): little activity was observed
- % ILS (increase in lifespan) [6, 16]: 20%
- DRD (drug related deaths) [6, 16]: 0/6
- LCK (log cell kill, gross) [6, 16]: 0.17
- MWL (maximum mean weight loss) [6, 16]: +^h
- TF (tumor free animals at end of study) [6, 16]: 0/6
- DRD (drug related deaths) [6, 17]: 0/6
- LCK (log cell kill, gross) [6, 17]: 0.21
- MWL (maximum mean weight loss) [6, 17]: +
- TF (tumor free animals at end of study) [6, 17]: 1/6
- DRD (drug related deaths) [6, 18]: 0/6
- LCK (log cell kill, gross) [6, 18]: 0.15
- MWL (maximum mean weight loss) [6, 18]: +
- TF (tumor free animals at end of study) [6, 18]: 0/6
- % T/C (optimal) [6, 19]: 61%
- DRD (drug related deaths) [6, 19]: 0/6
- MWL (maximum mean weight loss) [6, 19]: −0.8%
- TF (tumor free animals at end of study) [6, 19]: 0/6
- body weight [6, 20]: all animals gained weight
- drug-related deaths [6, 20]: No drug-related deaths were observed
- % ILS (increase in lifespan) [6, 21]: 0%
- % T/C (optimal) [6, 21]: 78%
- DRD (drug related deaths) [6, 21]: 0/6
- LCK (log cell kill, gross) [6, 21]: 0.02
- MWL (maximum mean weight loss) [6, 21]: +
- T − C (tumor growth delay) [6, 21]: 0.2 days
- TF (tumor free animals at end of study) [6, 21]: 0/6
- % ILS (increase in lifespan) [6, 22]: 13%
- DRD (drug related deaths) [6, 22]: 0/6
- LCK (log cell kill, gross) [6, 22]: 0.12
- MWL (maximum mean weight loss) [6, 22]: +
- TF (tumor free animals at end of study) [6, 22]: 0/6
- % ILS (increase in lifespan) [6, 23]: 35%
- % T/C (optimal) [6, 23]: 24%
- DRD (drug related deaths) [6, 23]: 0/6
- LCK (log cell kill, gross) [6, 23]: 0.35
- MWL (maximum mean weight loss) [6, 23]: +
- TF (tumor free animals at end of study) [6, 23]: 0/6
- topotecan present in plasma as the lactone species [7]: 48%
- MTD [8]: 1.5 mg/M^2/dose
- LD10 ([9]; mouse, in vivo): 14 mg/M2/dose
- LD10 ([9]; qd×5 schedule, Grochow et al.): ~4.7 mg/kg/dose
- human tolerated dose as share of the MTD in mice [10]: 11%
- true MTD (based on weight loss), estimated [11]: ~60 mg/kg
- anti-tumor activity (in words) ([12]; LX-1, initial single dose studies): inactive at evaluated doses<30 mg/kg
- % ILS (increase in lifespan) [12, 24]: 21%
- DRD (drug related deaths) [12, 24]: 0/6
- LCK (log cell kill, gross) [12, 24]: 0.14
- MWL (maximum mean weight loss) [12, 24]: −6.2%
- DRD (drug related deaths) [12, 25]: 0/6
- LCK (log cell kill, gross) [12, 25]: 1.53
- MWL (maximum mean weight loss) [12, 25]: −8.8%
- DRD (drug related deaths) [12, 26]: 0/6
- MWL (maximum mean weight loss) [12, 26]: −3.6%
- DRD (drug related deaths) [12, 27]: 2/6
- MWL (maximum mean weight loss) [12, 27]: −16.4%
- % ILS (increase in lifespan) ([12]; single i.v. dose 5 mg/kg): 0%
- DRD (drug related deaths) ([12]; single i.v. dose 5 mg/kg): 0/6
- LCK (log cell kill, gross) ([12]; single i.v. dose 5 mg/kg): 0.13
- MWL (maximum mean weight loss) ([12]; single i.v. dose 5 mg/kg): +
- % ILS (increase in lifespan) ([12]; single i.v. dose 10 mg/kg): 0%
- DRD (drug related deaths) ([12]; single i.v. dose 10 mg/kg): 0/6
- LCK (log cell kill, gross) ([12]; single i.v. dose 10 mg/kg): 0.18
- MWL (maximum mean weight loss) ([12]; single i.v. dose 10 mg/kg): +
- % ILS (increase in lifespan) ([12]; single i.v. dose 30 mg/kg): 7%
- DRD (drug related deaths) ([12]; single i.v. dose 30 mg/kg): 0/6
- LCK (log cell kill, gross) ([12]; single i.v. dose 30 mg/kg): 0.27
- MWL (maximum mean weight loss) ([12]; single i.v. dose 30 mg/kg): −1.3%
